Test results from patent publication EP0751957B1, “PEPTIDE FRAGMENTS OF MICROBIAL STRESS PROTEINS AND PHARMACEUTICAL COMPOSITION MADE THEREOF FOR THE TREATMENT AND PREVENTION OF INFLAMMATORY DISEASES” (priority 1994, dated 2004).
“Also recorded” adds a separate entry of the source.

Key:
[1] = test system: hsp65-PLNC; assay: T cell proliferation assay, hsp65-PLNC; format: cell-based, Lewis rats; settings: PLNC from hsp65-immunised rats; peptides 5 and 20 µg/ml
Method: Immunisations and primed lymph node populations: Rats were immunised with either Mt or hsp65. Mt was suspended at 5 mg/ml in IFA or DDA and 100 µl injected in each hind footpad (i.e. 500 µg/footpad, 1 mg/rat). Hsp65 (1 mg/ml in PBS) was mixed 1:1 with DDA and 100 µl injected (i.e. 50 µg/footpad, 100 µg/rat). Ten to 21 days later, draining popliteal lymph nodes were removed, disaggregated, washed three times and used as a source of primed lymph node cells (PLNC). In control experiments splenocytes and lymph nodes from unimmunised rats and PLNC from rats immunised with IFA or DDA/PBS alone were used.
(§1) T cell proliferation assays: PLNC were cultured in triplicate in 200 µl flat bottom microtitre wells (Costar) at 2 x 10^5 cells per well with or without antigen. In initial experiments PLNC were tested for responsiveness to individual peptides at concentrations of 5 and 20 µg/ml, and Mt, hsp65 and PPD over a range of concentrations. Concanavalin A (2 µg/ml) was used as a positive control for T cell proliferation. Cultures were incubated for 96 h at 37°C in a humidified atmosphere of 5% CO2. Cultures were pulsed for the final 16 h with [^3H] TdR (Amersham, U.K., 1 uCi/well) and TdR uptake measured using a liquid scintillation β counter. Assays using T cell lines were performed as above using 2 x 10^4 line cells per well with irradiated (30 Gy) syngeneic accessory cells (either 3 x 10^5 splenocytes/well or 10^6 thymocytes/well). Results are expressed as mean counts per minute (cpm) of triplicate cultures. In experiments where responses to Ag were low, responses were considered significant if the stimulation index (S.I. = […]) was greater than two and Student's t tests gave p < 0.01.
Hsp65-PLNC were analysed for responsiveness to a panel of peptides covering the entire sequence of hsp65 (Fig. 3a). […] In terms of magnitude of response, three regions of the molecule (residues 176-190, 211-230 and 221-240) appeared to contain the "dominant" T cell epitopes, while regions 86-100. 251-270, 396-410 and 506-525 contained "subdominant" or minor epitopes.

[2] = test system: hsp65-specific T cell line; assay: T cell proliferation assay, hsp65-specific T cell line; format: cell-based, Lewis rats; settings: short term lines from ten day hsp65-PLNC, seven days after first restimulation
Method: as §1
T cell lines: T cell lines with specificity for mycobacterial hsp65 or peptides were generated by bulk stimulation of either hsp65-PLNC or Mt-PLNC. PLNC were cultured at 5 x 10^6/ml in culture medium supplemented with 2% normal rat serum (NRS) in the presence of 10 µg/ml Ag. […]

[3] = test system: primed lymph node cells (PLNC); assay: T cell proliferation assay, PLNC from peptide-immunised rats; format: cell-based, Lewis rats; settings: for CPM PLNC: in vitro peptide 20 µg/ml
Method: (§2) Immunisations with synthetic peptides and primed lymph node populations: Rats were immunised with 50 µg of synthetic peptide in PBS/DDA in each hind footpad (i.e. 50 µg/footpad, 100 µg/rat). Ten days later, draining popliteal lymph nodes were removed, disaggregated, washed three times and used as a source of primed lymph node cells (PLNC). In some experiments, PLNC were derived as pooled inguinal and popliteal lymph nodes from AA rats 35-42 days post Mt immunisation.
as §1
To determine whether immunisation of rats with synthetic peptides was effective at priming for T cell reactivity to hsp65 epitopes, in vitro proliferative responses following immunisation with 100 µg of peptide each containing individual T cell epitopes were examined. PLNC isolated ten days after immunisation were tested for response to the immunising peptide, overlapping peptides and to hsp65 (Table II). PLNC responses were observed after immunisation with seven of the nine peptides. Responses were not seen after immunisation with peptides 386-400 and 511-525.
(§3) T cell responses by immunisation with hsp65 peptides. Rats were immunised with synthetic peptides containing individual hsp65 epitopes (100 µg peptide/DDA per rat). Ten days later PLNC were isolated and tested for responses to overlapping peptides (20 µg/ml). Peptide-specific T cell lines were generated by bulk in vitro stimulation of PLNC with immunising peptide. Lines were tested for responses to overlapping peptides (10 µg/ml). […] Results are expressed as mean cpm of triplicate cultures. All SEM were less than 20%.

[4] = test system: Peptide-specific T cell lines; assay: T cell proliferation assay, peptide-specific T cell lines from peptide-immunised rats; format: cell-based, Lewis rats; settings: in vitro peptide 10 µg/ml
Method: as §1
T cell lines: T cell lines with specificity for mycobacterial hsp65 or peptides were generated by bulk stimulation of either hsp65-PLNC or Mt-PLNC. PLNC were cultured at 5 x 10^6/ml in culture medium supplemented with 2% normal rat serum (NRS) in the presence of 10 µg/ml Ag. After three days viable cells were harvested using a ficoll-isopaque gradient and cultured for a further four days in culture medium + 5% FCS and 5% TCGF (Con A-activated rat spleen supernatant). Seven days after initial stimulation lines were restimulated with irradiated spleen accessory cells and 10 µg/ml Ag in culture medium + NRS. Lines were maintained ir. this seven day restimulation cycle. Short term epitope-specific T cell lines were also generated from rats immunised with synthetic peptides. Peptide-PLNC were cultured as above in the presence of 10 µg/ml peptide.
Bulk stimulation generated T cell lines to eight of the nine peptides tested. These eight lines were tested for specificity after four in vitro restimulations (Table II). All responded to the immunising peptide and, to some extent, to hsp65.
as §3

[5] = test system: PLNC from preimmunised rats; assay: T cell proliferation assay, PLNC of peptide-preimmunised AA rats 42 days after Mt; format: cell-based, Lewis rats; settings: rats preimmunised with the same peptide; peptide 20µg/ml
Method: as §2, §1
PLNC from preimmunised rats were tested for responsiveness to hsp65 epitopes 42 days after Mt administration (Fig. 8). […] Responses to peptide 176-190 containing the AA-associated epitope were found in all PLNC populations (and enhanced after 176-190 preimmunisation) with one exception.

[6] = test system: CP20961-induced arthritis; assay: CP20961-induced arthritis, clinical arthritis score; format: in vivo, Lewis rats; settings: 100 µg peptide in DDA 7 days prior to 2 mg CP20961 in 100 µl mineral oil i.d.
Method: (§4) Induction and clinical assessment of experimental arthritis: Arthritis was induced by a single intradermal injection in the base of the tail. AA was induced with 0.5 mg Mt suspended in 100 µl IFA. CP20961 arthritis was induced with 2 mg CP20961 in 100 µl light mineral oil (Sigma). Rats were examined daily for clinical signs of arthritis. Severity of arthritis was assessed by scoring each paw from zero to four based on degree of swelling, erythema and deformity of the joints. Thus the maximum possible arthritis score was 16.
Modulation of arthritis with hsp65 peptides and epitope-specific T cell lines: Synthetic peptides corresponding to eight T cell epitopes present in mycobacterial hsp65 were tested for protective effects on arthritis development. Rats were immunised with 100 µg of individual peptide seven days prior to arthritis induction. Peptides were immunised in each hind footpad in 10 mg/ml DDA (50 µl/pad). Control rats received only PBS/DDA. Epitope-specific T cell lines were also tested for protective activity by intravenous administration of lines at the time of arthritis induction. T cell lines were restimulated in vitro with irradiated spleen APC and specific peptide. Four days later T cell blasts were harvested by ficoll gradient, washed and applied to a second ficoll gradient to remove any contaminating APC. […]

[7] = test system: adjuvant arthritis; assay: Adjuvant arthritis (AA) induced with Mt in IFA, clinical arthritis score; format: in vivo, Lewis rats; settings: 100 µg peptide in DDA, hind footpads, 7 days prior to AA induction with Mt
Method: as §4
Modulation of arthritis with hsp65 peptides and epitope-specific T cell lines: Synthetic peptides corresponding to eight T cell epitopes present in mycobacterial hsp65 were tested for protective effects on arthritis development. Rats were immunised with 100 µg of individual peptide seven days prior to arthritis induction. Peptides were immunised in each hind footpad in 10 mg/ml DDA (50 µl/pad). Control rats received only PBS/DDA. Epitope-specific T cell lines were also tested for protective activity by intravenous administration of lines at the time of arthritis induction. T cell lines were restimulated in vitro with irradiated spleen APC and specific peptide. Four days later T cell blasts were harvested by ficoll gradient, washed and applied to a second ficoll gradient to remove any contaminating APC. T cells were washed twice in wash medium and twice in PBS and finally suspended at 2.5x10^7/ml in PBS. Immediately prior to injection of Mt, 200 µl (i.e. 5x10^6) T cells were injected i.v. in the tail vein.
The effects of preimmunisation with synthetic peptides containing individual epitopes on the development of AA were analysed (Fig. 7). The eight peptides which primed for epitope specific T cells were tested. Rats were immunised with 100 µg of peptide 7 days prior to AA-induction with Mt.

[8] = test system: T cell; assay: T cell proliferative responses in humans (initial testing); format: cell-based; settings: some autoimmune disease patients
Description: Thus, already the rat-defined T cell epitopes themselves could be used for therapeutical intervention in some individuals (certain HLA types).

[9] = target: RT1.B^1 MHC class II molecule (rat (Lewis)); assay: cell-based or functional assay

## peptide 386-400: synthetic 15mer, residues 386-400 of mycobacterial hsp65
[1]
  hsp65-PLNC proliferative response to peptide: failed to stimulate
[2]
  hsp65-specific T cell line response to peptide: did stimulate
[3]; 100 µg peptide, PLNC isolated ten days after immunisation
  PLNC responses after immunisation with the peptide: not seen

## peptide 211-225: synthetic 15mer, residues 211-225 of mycobacterial hsp65; control peptide in arthritis models
[4]; T cell line from 211-225-immunised PLNC
  CPM T Cell Line: 121978 cpm
[5]
  PLNC response to the immunising peptide 42 days after Mt administration: strong responses
[6]
  protection against CP20961-induced arthritis after peptide preimmunisation: did not
[7]
  protection against AA development after peptide preimmunisation: did not influence AA development
[3]; PLNC 10 days after immunisation with peptide 211-225 (100 µg/DDA)
  CPM PLNC: 39765 cpm

## peptide 86-100: synthetic 15mer, sequence 86-100 of SEQ ID No.1 (mycobacterial hsp65) (DGTTTATVLAQALVR; UniProt P9WPE7 86-100, looked up, fragment)
[4]; T cell line from 86-100-immunised PLNC
  CPM T Cell Line: 49422 cpm
[1]
  hsp65-PLNC proliferative response to peptide: subdominant
[8]
  T cell proliferative responses in autoimmune disease patients: capable of inducing T cell proliferative responses
[7]
  protection against AA development after peptide preimmunisation: moderate protection; also recorded: moderate effect
[3]; PLNC 10 days after immunisation with peptide 86-100 (100 µg/DDA), mean of triplicates
  CPM PLNC: 57925 cpm

## mycobacterial hsp65 peptide 256-270
[9]
  reduction of peptide (1 µg/ml) induced T cell line proliferation by anti-RT1.B mAb 0X6 (10 µg/ml): > 70%

## peptide 180-188: synthetic 9mer, minimal AA-associated epitope 180-188 of mycobacterial hsp65 (TFGLQLELT; UniProt P9WPE7 180-188, looked up, fragment) [reference compound]
[4]; T cell line from 176-190-immunised PLNC
  CPM T Cell Line: 23275 cpm
[1]
  hsp65-PLNC proliferative response to peptide: induce responses, but at a lower level
[3]; PLNC 10 days after immunisation with peptide 176-190 (100 µg/DDA)
  CPM PLNC: 7859 cpm

## mycobacterial hsp65 peptide 86-100
[9]
  reduction of peptide (1 µg/ml) induced T cell line proliferation by anti-RT1.B mAb 0X6 (10 µg/ml): > 70%

## mycobacterial hsp65 peptide 226-240
[9]
  reduction of peptide (1 µg/ml) induced T cell line proliferation by anti-RT1.B mAb 0X6 (10 µg/ml): > 70%

## mycobacterial hsp65 peptide 511-525
[9]
  reduction of peptide (1 µg/ml) induced T cell line proliferation by anti-RT1.B mAb 0X6 (10 µg/ml): > 70%
